Results on eight compounds are retold here after US4816477A, “Antihypercholesterolemic β-lactones” (Merck & Co., Inc., priority 1987, dated 1989).

In this test the target is T1, HMG-CoA synthase (Rattus norvegicus, UniProt P17425).
T1 construct: The livers from male Charles River CD rats (225-350 g) were homogenized in 0.25 M sucrose; from tissue; host or cells: rat liver (male Charles River CD rats), 100,000×g supernatant, ammonium sulfate precipitate, DEAE-52 fraction
T1 sequence (P17425 1-520): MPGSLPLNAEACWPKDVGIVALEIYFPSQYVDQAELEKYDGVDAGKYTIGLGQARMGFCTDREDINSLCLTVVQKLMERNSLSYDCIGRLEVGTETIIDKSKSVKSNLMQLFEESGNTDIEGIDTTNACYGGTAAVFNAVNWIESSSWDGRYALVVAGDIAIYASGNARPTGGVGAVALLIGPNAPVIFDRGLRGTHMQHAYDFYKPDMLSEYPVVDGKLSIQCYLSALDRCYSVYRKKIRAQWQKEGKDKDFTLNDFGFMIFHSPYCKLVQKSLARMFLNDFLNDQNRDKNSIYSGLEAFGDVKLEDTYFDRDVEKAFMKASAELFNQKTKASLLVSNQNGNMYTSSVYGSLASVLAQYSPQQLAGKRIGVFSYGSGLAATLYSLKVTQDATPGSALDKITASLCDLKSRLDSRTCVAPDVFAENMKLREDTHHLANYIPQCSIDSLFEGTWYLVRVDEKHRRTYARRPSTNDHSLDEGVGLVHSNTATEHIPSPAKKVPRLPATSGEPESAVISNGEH
The experiment in a line: HMG-CoA Synthase Inhibition Assay. The class given is biochemical. The settings on record: for IC50: in vitro, enzyme from rat liver. The procedure: The intrinsic HMG-CoA synthase inhibition activity of the compounds of this invention is measured by the standard in vitro protocol described below:
The livers from male Charles River CD rats (225-350 g) were homogenized in 0.25 M sucrose which was adjusted with phenylmethylsulfonylfluoride (PMSF) and N-p-tosyl-1-lysine chloromethyl ketone (TLCK) so that the final concentration of each was […], respectively. The homogenate was centrifuged at 15,000×g for 20 minutes, the supernatant filtered through a fine nylon screen to remove most of the fat layer and recentrifuged at 100,000×g for 1 hour. This supernatant was removed and 1 M potassium phosphate, dithiothreitol (DTT) and ethylene glycol-bis(β-aminoethyl ether)-N,N,N',N'-tetraacetic acid (EGTA) added to give a final concentration of 0.1 M (pH 7.2), 0.5 mM and 0.1 mM, respectively. Solid ammonium sulfate was added to 50% saturation to the protein solution, it was centrifuged at 15,000×g and the supernatant discarded. This precipitated protein could be stored at -70° C. for at least one month with very little loss of activity. The ammonium sulfate precipitate was dissolved in an minimal amount of 0.06 M potassium phosphate buffer (pH 7.2) containing 0.5 mM dithiothreitol and 0.1 mM EGTA (referred to as 0.06 M phosphate buffer) and dialyzed overnight against 2 liters of the same buffer to remove the ammonium sulfate and to inactivate HMG-CoA lyase [Clinkenbeard, et al., J. Biol. Chem. 250, 3108-3116(1975)].
The dialyzed extract was added to a column of DEAE-52 (Whatman) which had been equilibrated with 0.06 M phosphate buffer (10 mg of protein to 1 ml bed volume of the resin). The DEAE-cellulose was eluted with 0.06 M phosphate buffer until the optical density at 280 nm was essentially zero. This fraction contained the β-ketoacetyl-CoA thiolase activity. The HMG-CoA synthase was eluted from the column with 0.1 M phosphate buffer (pH 7.2) containing 0.5 mM DTT and 0.1 mM EGTA, and was virtually free of all thiolase activity. The protein was precipitated by the addition of ammonium sulfate to give 50% saturation. This solution was stirred for 10 minutes at 4° C. and the precipitate collected by centrifugation at 15,000 rpm for 10 minutes. The supernatant was discarded and the precipitate dissolved in a minimum of 0.06 M phosphate buffer, pH 7.2 (about 10 ml) and the enzyme stored at -80° C.
HMG-CoA Synthase Inhibition Assay
Enzyme protein (ca. […]) was added to a solution containing 117 mM Tris-HCl (pH 8.0), 11.7 mM MgCl2, 1.17 mM ethylenediaminetetraacetic acid (EDTA), 0.58 mM dithiothreitol, and the indicated concentrations of the test compound (added as a 2 mg/ml solution in dimethylsulfoxide). The incubation took place in a volume of 0.085 ml at 30° in a shaking water bath. After 5 minutes, […] of a solution containing acetoacetyl-CoA and 0.1 μCi of 1-[^14 C]-acetyl-CoA was added to give a final concentrations of 0.1 and 0.4 μM, respectively. The incubation was continued for 10 more minutes and the reaction stopped by the addition of […] of the assay mixture to 0.2 ml of 6N HCl in a glass scintillation vial. The vial was heated for 1 hour at 120° after which time 0.2 ml more of 6N HCl was again added to each vial and the heating continued for another hour. Following this, 1.0 ml of 0.9% saline was added to each vial and finally 10 ml of scintillation liquid. Radioactivity was determined in a Packard Tri-Carb liquid scintillation counter. Percent inhibition is calculated by the formula: [formula] IC50 values were determined by plotting the log of the concentration of the test compound verses the percentage inhibition and fitting a straight line to the resulting data by using the least squares method.

As a reminder, the IC50 is the concentration that gives 50% inhibition. A high value points to lower potency. In general, inhibition refers to the percentage by which the read-out fell short of the control. The IC25 is the concentration at which the effect reaches the 25% level.

Take `COC(=O)/C=C(C)/C=C(\C)CC(C)CCCCC1OC(=O)C1CC#N` (stereo not shown) [R^1=OCH3, R^2=CN, methyl 11-(3-cyanomethyl-4-oxo-2-oxetano)-3,5,7-trimethyl-2,4-undecadienoate]: half-maximal inhibition (IC50) was put at 2900 nM. Still for that read-out and setting: as for `CC(=C\C(=O)O)/C=C(\C)CC(C)CCCCC1OC(=O)C1CCl` (stereo not shown) [R^1=OH, R^2=Cl, 11-(3-Chloromethyl-4-oxo-2-oxetano)-3,5,7-trimethyl-2,4-undecadienoic acid], the figure is 300 nM. In the case of `COC(=O)/C=C(C)/C=C(\C)CC(C)CCCCC1OC(=O)C1C` (stereo not shown) [R^1=OCH3, R^2=H, methyl 11-(3-methyl-4-oxo-2-oxetano)-3,5,7-trimethyl-2,4-undecadienoate], the inhibition at 6 µM (at 6 × 10^-6 M, read-out: percent inhibition) was determined as 22.7%. Also, the 25% effect concentration (IC25) (concentration giving 22.7 percent inhibition, read-out: IC25 (printed in the IC50 column, in parentheses)) amounted to 6000 nM. With `COC(=O)/C=C(C)/C=C(\C)CC(C)CCCCC1OC(=O)C1CN=[N+]=[N-]` (stereo not shown) [R^1=OCH3, R^2=N3, methyl 11-(3-azidomethyl-4-oxo-2-oxetano)-3,5,7-trimethyl-2,4-undecadienoate], half-maximal inhibition (IC50) was put at 100 nM.

In the case of `COC(=O)/C=C(C)/C=C(\C)CC(C)CCCCC1OC(=O)C1CSC(C)=O` (stereo not shown) [R^1=OCH3, R^2=drawing 3, methyl 11-(3-acetylthiomethyl-4-oxo-2-oxetano)-3,5,7-trimethyl-2,4-undecadienoate], the IC50 amounted to 10000 nM. Further, for the setting “at 10^-5 M, read-out: percent inhibition”, the inhibition at 10 µM came to 47.9%.

Compound `CC(=C\C(=O)O)/C=C(\C)CC(C)CCCCC1OC(=O)C1CF` (stereo not shown) [R^1=OH, R^2=F, 11-(3-fluoromethyl-4-oxo-2-oxetano)-3,5,7,-trimethyl-2,4-undecadienoic acid] returned an IC50 of 280 nM. This lies in the sub-micromolar range. `CC(=C\C(=O)O)/C=C(\C)CC(C)CCCCC1OC(=O)C1C` (stereo not shown) [R^1=OH, R^2=H, 11-(3-methyl-4-oxo-2-oxetano)-3,5,7-trimethyl-2,4-undecadienoic acid] gave an IC50 of 100 nM.

In the case of `CC(=C\C(=O)O)/C=C(\C)CC(C)CCCCC1OC(=O)C1CBr` (stereo not shown) [R^1=OH, R^2=Br, 11-(3-bromomethyl-4-oxo-2-oxetano)-3,5,7-trimethyl-2,4-undecadienoic acid], the concentration for half-maximal inhibition (IC50) was determined as 1400 nM.
